From ChEMBL document CHEMBL1123078 (J Med Chem, 1985) come the findings set out here.

Test [1] deals with Staphylococcus aureus. Description: Relative in vitro Antibacterial activity against Staphylococcus aureus CN491 strain. Also on record: unit not given here. The test is classed as functional.
Test [2] addresses T1, Dihydrofolate reductase (Rattus norvegicus, UniProt Q920D2).
T1 sequence (Q920D2 whole entry): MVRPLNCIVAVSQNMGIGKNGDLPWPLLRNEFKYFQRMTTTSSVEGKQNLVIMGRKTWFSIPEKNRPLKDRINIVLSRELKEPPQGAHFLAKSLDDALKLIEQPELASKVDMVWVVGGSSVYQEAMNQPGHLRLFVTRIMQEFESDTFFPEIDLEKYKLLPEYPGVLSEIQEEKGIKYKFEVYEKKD
Description: Binding affinity against Dihydrofolate reductase of rat liver. The conditions noted are these: read-out: I50.

Test [3] concerns Escherichia coli. As to the kind of experiment: (§1) Relative in vitro Antibacterial activity against Escherichia coli CN314 strain. Also on record: reference not given here. The class given is functional.
Test [4] concerns Proteus vulgaris. Description: Relative in vitro Antibacterial activity against Proteus vulgaris CN329 strain. The test is classed as functional. On the set-up: unit not given here.
Test [5] concerns Escherichia coli. The description is as §1. The test is classed as functional. Also on record: unit not given here.
The subject of test [6] is Salmonella. The test is classed as functional, salmonella typhosa. Also on record: unit not given here.
For test [7], the target named is T2, Dihydrofolate reductase (Rattus norvegicus) (UniProt Q920D2).
T2 sequence (whole entry): T1 sequence (Q920D2 whole entry)
Description: Percent inhibition against Dihydrofolate reductase of rat liver at dose 0.42 mg/kg. The test is classed as organism-based. Also on record: dose 0.42 mg/kg.

The target in test [8] is T3, Dihydrofolate reductase (Escherichia coli, UniProt P0ABQ4).
T3 sequence (P0ABQ4 whole entry): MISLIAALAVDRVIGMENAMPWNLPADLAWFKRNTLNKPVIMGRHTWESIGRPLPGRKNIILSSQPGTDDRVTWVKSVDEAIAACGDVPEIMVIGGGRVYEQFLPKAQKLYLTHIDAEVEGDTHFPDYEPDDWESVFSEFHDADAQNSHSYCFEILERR
Description: Relative Binding affinity against Dihydrofolate reductase of Escherichia coli.

The target of test [9] is T4, Dihydrofolate reductase (Gallus gallus, UniProt P00378).
T4 sequence (P00378 whole entry): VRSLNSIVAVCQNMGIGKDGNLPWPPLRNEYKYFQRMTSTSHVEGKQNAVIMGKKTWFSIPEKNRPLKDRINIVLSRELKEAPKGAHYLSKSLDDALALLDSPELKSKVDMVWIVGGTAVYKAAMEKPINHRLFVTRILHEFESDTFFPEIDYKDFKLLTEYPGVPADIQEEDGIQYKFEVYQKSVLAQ
As to the kind of experiment: Binding affinity against Dihydrofolate reductase of chicken liver. To be noted: read-out: I50.

The target of test [10] is T4, Dihydrofolate reductase. As to the kind of experiment: Binding affinity against Dihydrofolate reductase Inhibitor of chicken liver. To be noted: read-out: I50.
Test [11] deals with T2, Dihydrofolate reductase (Rattus norvegicus). Description: Percent inhibition against Dihydrofolate reductase of rat liver at dose 1.0 mg/kg. The test is classed as organism-based. On the set-up: dose 1 mg/kg.
For test [12] the target is unchanged. Description: Percent inhibition against Dihydrofolate reductase of rat liver at dose 0.9 mg/kg. The test is classed as organism-based. Also on record: dose 0.9 mg/kg.

`COc1cc(Cc2cnc(N)nc2N)cc(OCCCCC(=O)O)c1OC`: the MIC in test [1] was 2; in test [3] it was 300; in test [4], greater than 100. For the same compound, the IC50 in test [2] amounted to 27 µM.

In the case of `COC(=O)CCCCOc1cc(Cc2cnc(N)nc2N)cc(OC)c1OC`, the figures for the MIC in test [1], in test [5] and in [4] were 2, 1000 and greater than 100, respectively. For the same compound, in [2], the IC50 is 130 µM.

As for `COC(=O)COc1cc(Cc2cnc(N)nc2N)cc(OC)c1OC`, the MIC is listed as 200 in test [1], 1000 in test [6], 100 in [5] and greater than 100 in [4]. The inhibition in test [7] stood at 15%.

`COc1cc(Cc2cnc(N)nc2N)cc(OCCCCCC(=O)O)c1OC`: the MIC in test [1] was 2; in test [3], 300; in test [4], greater than 100. Moreover, in test [2], the IC50 is 35 µM.

As for `COc1cc(Cc2cnc(N)nc2N)cc(OC)c1OCCCCCC(=O)O`, the MIC in [1] was 6; in test [6] it was 30; in test [5], 30; in test [4], greater than 100.

On to `CCOC(=O)COc1c(OC)cc(Cc2cnc(N)nc2N)cc1OC`, for which the MIC in [1] is given as 60; in test [6], 10; in test [5], 100; in test [4], greater than 100.

As to `COc1cc(Cc2cnc(N)nc2N)cc(OC)c1OCCCC(=O)O`, the IC50 in test [2] came out at 400 µM; in test [9], 350 µM. For the same compound, the Ki in test [8] was 0.0052 µM.

As to `COc1cc(Cc2cnc(N)nc2N)cc(OCCCCCCC(=O)O)c1OC`, the MIC is reported as 1 in test [1], 100 in test [3] and greater than 50 in test [4]. In test [2], the IC50 stood at 56 µM.

Regarding `COC(=O)CCCCCOc1cc(Cc2cnc(N)nc2N)cc(OC)c1OC`, the MIC is on record as 2 in [1], 30 in [6], 100 in [5] and greater than 100 in test [4]. In addition, the IC50 in test [2] was found to be 180 µM.

For the compound `COc1cc(Cc2cnc(N)nc2N)cc(OCC(=O)O)c1OC`, the MIC in [1] is greater than 200; in test [3], 100; in test [4], greater than 100. Also, the IC50 in [2] was found to be 70 µM.

Regarding `COc1cc(Cc2cnc(N)nc2N)cc(OC)c1OCC(=O)O`, the MIC was 200 in test [1], 100 in test [6], 300 in test [5] and greater than 100 in [4].

With `COc1cc(Cc2cnc(N)nc2N)cc(OCCCC(=O)O)c1OC`, the MIC in [1] is recorded as 20; in test [3], 100; in [4] it was greater than 100. In addition, the IC50 is 9.7 µM in [2] and 22 µM in test [10].

In test [11], `COC(=O)CCCCOc1c(OC)cc(Cc2cnc(N)nc2N)cc1OC` registered an inhibition of 0%.

`COc1cc(Cc2cnc(N)nc2N)cc(OCCC(=O)O)c1OC`: the MIC in test [1] is recorded as 20; in test [3], 1; in [4], greater than 100. Further, the IC50 in test [2] amounted to 74 µM.

The compound `CCOC(=O)CCCOc1c(OC)cc(Cc2cnc(N)nc2N)cc1OC` came in with an inhibition in [12] of 17%.

On to `COc1cc(Cc2cnc(N)nc2N)cc(OC)c1OC` [TRIMETHOPRIM], for which the MIC in test [1], in [3] and in [4] was 1 throughout.

For the compound `COC(=O)CCCCCOc1c(OC)cc(Cc2cnc(N)nc2N)cc1OC`, the MIC was 6 in test [1], 300 in [6], 1000 in test [5] and greater than 100 in test [4].

Consider `COc1cc(Cc2cnc(N)nc2N)cc(OC)c1OCCCCC(=O)O`, for which, in test [2], the IC50 came out at 640 µM.

In the case of `CCOC(=O)CCCOc1cc(Cc2cnc(N)nc2N)cc(OC)c1OC`, the MIC in test [1] stood at 10; in [6], 100; in test [5], 100; in test [4], 50. Moreover, the IC50 in test [2] was 160 µM.

Regarding `COC(=O)CCCCCCOc1cc(Cc2cnc(N)nc2N)cc(OC)c1OC`, the MIC in test [1] is listed as 0.2; in [6] it was 50; in test [5], 100; in [4] it was greater than 50. Also, the IC50 in [2] stood at 110 µM.

One may read the inhibition as the change of the read-out against control, counted positive when it falls. As usually defined, the Ki is the dissociation constant of the complex between target and ligand, obtained from inhibition or displacement.
